Experimental findings from PubChem BioAssay AID2305 (GlaxoSmithKline (GSK), 2010) are described below.

This assay concerns P. falciparum 3D7 growth, pLDH absorbance. Nature of the assay: P. falciparum 3D7 growth inhibition, dose response, strain 3D7 (AID 2305).

With `CC1CCCN(S(=O)(=O)c2cc(Br)cc3c2N(C(=O)C2CC2)CC3)C1` (stereo not drawn), the IC50 (commonly the concentration that inhibits the measured activity by half) was 720 nM.
Next, `CN1CCN=C1c1ccc(NC(=O)Nc2ccc(C3=NCCN3C)cc2)cc1`: 380 nM; `CCCCCN1CCCN(Cc2cccc(NC(=O)c3ccc(-c4ccccc4)cc3)c2)CC1`: 700 nM; `Cc1[nH]c2ccc(O)cc2c1C1CCN(CC2CCN(C(=O)/C=C/c3ccc(Cl)c(Cl)c3)CC2)CC1`: 1000 nM.
`CC(C)CNCc1cccc(-c2cccc(CN(CCCN3CCN(C)CC3)C(=O)CCC3CCCC3)c2)c1`: the concentration for half-maximal inhibition (IC50) turned out to be 620 nM.
Next, `CCc1cccc(NC(=O)/C=C/c2ccc3c(c2)CN(C)CC3)c1`: 770 nM; `O=C(Nc1cccc(Cl)c1)N[C@H]1CCN(Cc2ccc(OCCCN3CCCCC3)cc2)C1`: 730 nM.
`Cc1ccccc1OCCCc1c(C)nc(N)nc1N` returned an IC50 of 280 nM.
`O=C1Nc2cccc3c2C1(CCCCN1CCC(c2c[nH]c4cc(C(F)(F)F)ccc24)CC1)CCC3` (stereo not drawn): the IC50 is 720 nM.
Next, `c1cc(CN2CCN(CCN3CCOCC3)CC2)cc(-c2cccc(-c3nc4ccccc4[nH]3)c2)c1`: 240 nM; `CCCC1(NC[C@@H](O)[C@H](Cc2ccccc2)NC(=O)c2cc(NCC)cc(N3CCCCS3(=O)=O)c2)CCCC1`: 500 nM; `CC(C)CNCc1ccc(-c2cccc(CN(CCN(C)C)C(=O)NCCc3ccccc3)c2)cc1`: 1060 nM.
`Cn1nccc1C(=O)NCCNCc1cccc(-c2csc(-c3nc4ccccc4[nH]3)c2)c1` yielded a concentration for half-maximal inhibition (IC50) of 840 nM.
To `CC(C)CN1CCN(c2nc(C#N)c3c(c2C(=S)NC2CCCCC2)CC(C)(C)OC3)CC1` belongs 300 nM; to `Fc1ccc2nc(-c3cccc(-c4ccc(CNCc5cnn(-c6ccccc6)n5)cc4)c3)[nH]c2c1`, 920 nM.
Next, `Cc1cccc(CN2CCCC3(CCN(Cc4ccccc4O)C3)C2)c1` (stereo not drawn): 800 nM.
On to `c1ccc(C(c2ccccc2)N2CCC(NCc3ccc(OCCCN4CCCCC4)cc3)CC2)cc1`, for which the IC50 came out at 560 nM.
Compound `COc1nc2c(CCN3CCC(NCc4ccc5c(c4)NC(=O)CO5)CC3)c(Cl)cnc2cc1F` had an IC50 of 770 nM.
`O=S(=O)(NCCN1CCCC1)c1cccc(-c2cccc(CNCc3ccc(F)cc3)c2)c1` yielded a half-inhibitory concentration (IC50) of 850 nM.
Compound `CCN(CC)CCOC(=O)c1ccc(NC(=O)c2cc(-c3ccc(C)cc3)nc3ccccc23)cc1` yielded a 50% inhibitory concentration (IC50) of 780 nM.
To `Nc1cc(C=Cc2ccc([N+](=O)[O-])o2)nc2ccccc12` belongs 370 nM.
As for `O=C(/C=C/c1ccc(Cl)c(Cl)c1)NCCCCCN1CCC(c2cn[nH]c2-c2ccccc2)CC1`, the IC50 amounted to 1220 nM.
The compound `CCN(CC)CCCNc1ncc2c(-c3ccc(NC(=O)Nc4cc(C(F)(F)F)ccc4F)cc3)nn(C)c2n1` came in with an IC50 of 220 nM.
Compound `COc1cccc2c(NCc3ccccc3)nc(NCCCN3CCCCC3C)nc12` (stereo not drawn) displayed an IC50 of 910 nM. Against the preceding compound, the IC50 is about 4.1-fold higher.
To `CCOc1cccc(C(=O)Nc2cccc(CN3CCCN(Cc4ccc(O)cc4)CC3)c2)c1` belongs 820 nM.
Next, `Cn1cc(CN2CCC(OC(c3ccccc3)c3ccc(Cl)cc3)CC2)cn1` (stereo not drawn): 840 nM.
Regarding `CN1CCC(NCc2cccc(-c3ccc(S(=O)(=O)NCCc4ccccn4)c(F)c3)c2)CC1`, the 50% inhibitory concentration (IC50) came to 920 nM. The IC50 values of the last two compounds are within 1.5-fold of each other.
`O=C(/C=C/c1ccc(CNCCN2CCOCC2)cc1)NCCc1ccccc1`: the IC50 was 860 nM.
Next, `NC1(C(=O)O)Cc2ccc(Cl)cc2C1` (stereo not drawn): 730 nM.
Regarding `CN1CCCN(Cc2ccc(-c3ccc(NC(=O)c4cccc(C#N)c4)cc3)cc2)CC1`, the IC50 was 880 nM. This IC50 and that of the compound before are within 1.5-fold of each other.
As for `Cc1cc(N[C@@H](CC(C)C)C(=O)NCCc2ccccc2)nc(NCCc2ccc(F)cc2)n1`, the IC50 came out at 770 nM.
As to `OC1CCCN(Cc2ccc(-c3cccc(-c4nc5ccccc5[nH]4)c3)cc2)C1` (stereo not drawn), the IC50 was determined as 1340 nM. This IC50 lies about 1.7-fold higher than the previous one.
On to `COc1cccc(CCc2c(CCNCCCCCCNCCc3ccccc3)ccc(OC)c2OC)c1`, for which the IC50 was found to be 720 nM.
Next, `Cc1nc(-c2cccc(C(F)(F)F)c2)n2nc(Nc3ccc(OCCN4CCCC4)cc3)ncc12`: 750 nM; `O=C(CCCCCCc1ccccc1)Nc1ccc2nc3c(c(NCc4ccccc4)c2c1)CCCC3`: 360 nM; `CC(CNC1CCN(CCn2c(=O)ccc3ccc(F)cc32)CC1)c1ccccc1` (stereo not drawn): 1270 nM.
To `COc1ccc(N2CCN(CCCCNC(=O)c3ccc(NC(=O)c4ccc(C(F)(F)F)cc4)cc3)CC2)c(OC)c1` belongs 590 nM; to `COc1cc(Nc2ccnc3cc(-c4ccncc4)ccc23)cc(OC)c1OC`, 1080 nM; to `Cc1cc(NCCC(=O)NCc2cccc(F)c2)nc(Nc2ccccc2)n1`, 1050 nM.
To `CS(=O)(=O)Cc1ccc(Nc2nccc(-c3c(-c4cccc(NC(=O)c5c(F)cccc5F)c4)nn4ccccc34)n2)cc1` belongs 150 nM.
Take `Fc1ccc(C=NNc2nc3ccccc3[nH]2)cc1`: the IC50 turned out to be 780 nM.
To `COc1ccc2nc(NC3=NC(c4ccccn4)(c4ccccn4)C(=O)N3C)[nH]c2c1` belongs 590 nM.
Next, `C=CCc1cc(C2CCN(CCCCNC(=O)c3ccc(-c4ccc(C#N)cc4)cc3)CC2)c(OCC(N)=O)c2c1CCCC2`: 800 nM.
Compound `c1csc(-c2nc(N3CCCC3)ncc2-c2ccsc2)n1` displayed a half-maximal inhibitory concentration (IC50) of 210 nM.
With `COc1ccc(OCC(=O)Nc2nc(-c3ccc(OC)cc3)c(C)s2)cc1`, the IC50 was determined as 1950 nM.
`COc1ccc(CCNC(=O)c2ccc(-n3cc(NC(=O)c4cccnc4)cn3)cc2)cc1OC` yielded a half-inhibitory concentration (IC50) of 1070 nM.
To `COc1ccccc1CNc1nc(Nc2ccccc2C)nc2ccccc12` belongs 810 nM; to `CCOc1cc(OCC)c2ccccc2c1CNCCCCCCNCc1c(OCC)cc(OCC)c2ccccc12`, 310 nM; to `COC(=O)C(Cc1ccccc1)C(CSCc1ccc(OC)cc1)C(=O)N[C@@H](C(=O)OC(C)(C)C)c1ccc(C(C)(C)C)cc1` (stereo partly drawn), 1030 nM.
Next, `CN1CCN(CCCNCc2ccc(Nc3nccc(Nc4ccc(Oc5ccccc5)cc4)n3)cc2)CC1`: 630 nM; `O=C(/C=C/c1ccc2ccccc2c1)NC1CCC(CN2CCC(c3c[nH]c4ccccc34)CC2)CC1` (stereo not drawn): 730 nM.
The compound `Cc1ccc2[nH]c(-c3ccc(C(=O)NC4CCN(Cc5ccccc5)CC4)cc3)nc2c1C` returned a concentration for half-maximal inhibition (IC50) of 730 nM. In other words, the sub-micromolar range.
In the case of `COc1ccc(-c2nccc(NC(N)=NCc3ccccc3)n2)cc1`, the concentration for half-maximal inhibition (IC50) turned out to be 670 nM. The IC50 values of the last two compounds are within 1.5-fold of each other.
To `Cc1cc(CNC(c2ccccc2)C2CCC2)cc(C)c1O` (stereo not drawn) belongs 890 nM; to `Cc1cc(CN2CC[C@H](NC(=O)c3ccc(Cl)c(Cl)c3)C2)ccc1OCCCN(C)C`, 840 nM; to `CCNc1cc(C(=O)N[C@@H](Cc2ccccc2)[C@H](O)CNCc2cccc(OC)c2)c(OC)c(N2CCCCS2(=O)=O)c1`, 690 nM.
Next, `O=C(NC1CCN(c2ccnc3ccccc23)C1)c1ccc(OC(F)(F)F)cc1` (stereo not drawn): 1150 nM; `Cc1[nH]c(C)c(-c2ccc(-c3ccccc3)nc2)c(=O)c1Br`: 660 nM.
In turn, `CCCn1c(SCC(=O)Nc2cc(Cl)ccc2Cl)n[nH]c1=O` gave a half-maximal inhibitory concentration (IC50) of 1000 nM.
To `c1ccc(Cn2nnnc2-c2cccc(Nc3ccnc4cc(-c5nccs5)ccc34)c2)cc1` belongs 830 nM; to `CCN(CCCN1CCCCC1)c1cc(C)nc(Nc2cc(C(F)(F)F)ccc2C)n1`, 860 nM.
`CN(C)CCn1cc(C(=O)c2cc(Cl)ccc2O)cc1-c1nc2ccccc2c(=O)[nH]1` registered an IC50 of 630 nM.
Regarding `CCC1CCc2cc(N)cc(-c3nc4c(c(C)nn4CC)c(=O)[nH]3)c2O1` (stereo not drawn), the IC50 is 1120 nM.
As to `O=C(Nc1ccc(Cl)cc1)c1ccc(CN2CCCN(Cc3ccccc3)CC2)cc1`, the IC50 was 750 nM.
To `Cc1cc(N(C)C)nc(Nc2ccc(NC(=O)c3ccccc3C)cc2)n1` belongs 1130 nM; to `COc1ccccc1Nc1nc(C)cc(NCc2ccc(-c3c(C)noc3C)cc2)n1`, 870 nM; to `O=C(Nc1ccc(OC2CCN(Cc3ccc(F)cc3)CC2)cc1)c1cccs1`, 970 nM.
As for `COc1cc(F)c2ncc(F)c(CCN3C[C@H](CNCc4ccc5c(n4)NC(=O)CS5)[C@H](O)C3)c2c1`, the IC50 is 460 nM.
To `COc1ccc(-c2ccc(NC(=O)c3ccc(C#N)cc3)c(F)c2)cc1CN(C)CCN(C)C` belongs 970 nM; to `CCN1CCC(N(Cc2ccc(-c3ccc(C(F)(F)F)cc3)cc2)C(=O)Cn2c(CCc3cccc(F)c3F)nc(=O)c3ccccc32)CC1`, 1060 nM; to `CCCC(C)NC[C@@H](O)[C@H](Cc1ccccc1)NC(=O)c1cc(C2CCCC2)cc(N2CCCCS2(=O)=O)c1` (stereo partly drawn), 150 nM.
Next, `CCc1c[nH]c2c(N3CCCC3=O)cc(C(=O)N[C@@H](Cc3ccccc3)[C@H](O)CNC(C)(C)c3cccc(OC)c3)cc12`: 190 nM; `Cc1[nH]c2c(NCc3ccc(F)cc3)nccc2c1C`: 1360 nM; `COc1ccc2nc(C)cc(NN=Cc3cccc(Cl)c3)c2c1`: 630 nM.
Regarding `O=C(c1ccc(Cl)cc1)C1CCN(CCCOc2ccc3c(c2)CCNCC3)CC1`, the IC50 was 1150 nM. Compared with the last compound, the IC50 is about 1.8-fold higher.
Next, `CCNC(=O)N[C@@H]1CN[C@@H](C#Cc2cc3c(Nc4ccc(OCc5cccc(F)c5)c(Cl)c4)ncnc3s2)C1`: 1010 nM.
With `COc1ccc2cc(C(=O)Nc3ccc4c(c3)CCN(C3CCC3)CC4)ccc2c1`, the IC50 was 840 nM. The IC50 values of the last two compounds are within 1.5-fold of each other.
To `OC(CNCc1ccccc1OCc1ccccc1)c1cccc(Br)c1` (stereo not drawn) belongs 640 nM; to `Oc1cccc(CCNCCCCCCNCCc2ccc(Cl)cc2)c1`, 770 nM.
Next, `Oc1c(CN2CCC(Cc3ccccc3)CC2)cc(Cl)c2cccnc12`: 880 nM; `Cc1cc(C(=O)CN2C(=O)NC3(CCCc4ccccc43)C2=O)c(C)n1Cc1ccco1` (stereo not drawn): 1100 nM.
In turn, `N#Cc1cccc(C(=O)N2CCOC(CCN3CCC(c4ccccc4)CC3)(c3ccc(Cl)c(Cl)c3)C2)c1` (stereo not drawn) showed an IC50 of 1040 nM.
To `COc1ccc2nccc(N3CCC(O)(CCNCc4ccc5c(n4)NC(=O)CO5)CC3)c2n1` belongs 820 nM; to `O=C(Nc1cccc([N+](=O)[O-])c1)Nc1cccc(C(F)(F)F)c1`, 770 nM.
Compound `O=c1cc(NCCCNCc2cccc(OC(F)(F)C(F)F)c2)[nH]c2ccccc12` displayed a 50% inhibitory concentration (IC50) of 1270 nM. This IC50 is about 1.6-fold higher than that of the compound before.
To `Cc1ccc(C2CC(c3cccs3)=NN2C(=O)c2ccc(Br)o2)cc1` (stereo not drawn) belongs 890 nM.
To `COc1ccc2nccc([C@@H](O)CN3CCC(NC(=O)C(c4cc5ccccc5o4)N4CCN(Cc5ccccc5)CC4)CC3)c2c1` (stereo partly drawn) belongs 160 nM; to `Cc1ccc2nc3ccccc3c(NCCN3CCN(C)CC3)c2c1`, 590 nM.
